Source: US20070073056A1, “4-Substituted Pyrazoline Compounds, their Preparation and Use as Medicaments” (LABORATORIOS DEL DR. ESTEVE, S.A., priority 2005, published 2007)
Counter-ions that a name gives are not always drawn. Like-named read-outs stand apart in the source and are kept apart here.

What was measured:
CB1-receptor [1] = target: CB1-receptor (UniProt P20272); experiment: binding of the pyrazoline compounds to CB1-receptors (Pharmacological Methods, Part I); set-up: other: 10^−7 M; other: 10^−8 M; species or system human or rat
Procedure, shortened: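 Rat cerebellum membranes (male Wistar), 100 μg protein, competed against 1 nM [3H]-CP 55,940 in 50 mM Tris-HCl, 5 mM MgCl2, 1 mM EDTA, 0.5% BSA, pH 7.4; 1 h at 30 °C. Non-specific binding with 10 μM HU-210; filtration and scintillation counting, triplicates, non-linear regression.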

CB1-receptor [2] = target: CB1-receptor (UniProt P20272); experiment: as above; set-up: IC50; species or system human or rat
Experimental: I. In-vitro Determination of Affinity to CB1/CB2-Receptors
The in-vitro determination of the affinity of the inventive 4-substituted pyrazoline compounds to CB1/CB2-Rezeptors is carried out as described in the publication of Ruth A. Ross, Heather C. Brockie et al., “Agonist-inverse agonist characterisation at CB1 and CB2 cannabinoid receptors of L-759633, L759656 and AM630”, British Journal of Pharmacology, 126, 665-672, (1999), whereby the transfected human CB1 and CB2 receptors of Receptor Biology, Inc. are used. The radioligand used for both receptors is [^3H]-CP55940. The respective parts of the description is hereby incorporated by reference and forms part of the present disclosure.
Rat Cerebellum CB1 Binding
Binding affinity to CB1 receptor was evaluated according to a modification of the method described by Govaerts et al., Eur J Pharmac Sci 23, 233-243 (2004). The respective parts of the description is hereby incorporated by reference and forms part of the present disclosure.
Briefly, cerebellum from male wistar rats (250-300 g) were carefully dissected on ice and homogenates were prepared with Potter-Helveheim in a cold 50 mM Tris-HCl solution containing 5 mM MgCl2, 1 mM EDTA and 0.25 M sucrose, pH 7.4. The suspension was centrifuged at […] for 5 minutes. The supernatants were collected and centrifuged 50,000×g for 15 minutes. The resulting pellets were then resuspended in Tris-HCl buffer without sucrose, homogenized and incubated for 15 min at 37° C. in an orbital shaker bath and centrifuged again at 50,000×g for 15 min. Pellets were weighted, resuspended in Tris-HCl buffer without sucrose, homogenized with Ultraturrax at 13,500 rpm for 3×5 seconds and alicuoted in 0.9 ml volumes in Eppendorf tubes. Alicuotes were centrifuged at 20,800×g for 5 minutes, supernatants discarded and pellets were frozen at −80° C. until use. Total protein concentration was determined using the Bio-Rad Lowry method based kit. Competitive binding experiments were performed in presence of 1 nM [^3H]-CP 55,940 in siliconized glass tubes containing 100 μg protein/tube resuspended in 1 ml final volume of 50 mM Tris-HCl, 5 mM MgCl2, 1 mM EDTA, 0.5% (w/v) bovine serum albumin, pH 7.4. Compounds were present at various concentrations and the non specific binding was determined in the presence of 10 μM HU-210. After 1 hour incubation at 30° C., the suspension was rapidly filtered through 0.5% PEI pre-treated GF/B fiber filters on a 96-well harvester and washed 3 times with 3 ml ice-cold binding buffer without bovine serum albumin. Radioactivity on filters was measured with Wallac Winspectral 1414 counter by liquid scintillation in 6 ml Ecoscint H (National Diagnostics, U.K.). Assays were made in triplicates.
Binding data were analyzed by non-linear regression with the software GraphPad Prism Version 3.03.
The binding of the pyrazoline compounds of general formula I to CB1-receptors was determined according to the method described in the section Pharmacological Methods, Part I.

[3] = target: recombinant human cannabinoid 1 receptor (CB1) (Homo sapiens, UniProt P21554); experiment: [35S]GTPγS binding assay, antagonism to CB1-receptor (Pharmacological methods, part V); assay type: biochemical; conditions: compound at 1 μM against agonist WIN 55,212-2; 100% = effect of Rimonabant (1 μM); CHO membranes
Experimental: V. In vitro Determination of Antagonism to CB1-Receptor
Chinese hamster ovary (CHO) cells stably expressing recombinant human cannabinoid 1 receptor (CB1) were cultured in nutrient mixture Ham's F 12 supplemented with 10% heat-inactivated fetal bovine serum, 2 mM L-glutamine, 50 U/ml penicillin, 50 U/ml streptomycin and 0.5 mg/ml geneticin. In order to obtain cells, culture flasks were washed twice with phosphate buffered saline and scraped. Then, cells were collected by centrifugation (200×g, 10 min) and stored dry at −80° C. Cells were homogenized in ice-cold 20 mM HE PES, 10 mM EDTA (pH 7.5) and centrifuged at 40,000×g for 15 min at 4° C. The pellet was resuspended in 20 mM HEPES, 0.1 mM EDTA (pH 7.5) and centrifuged for 15 min at 4° C. The final pellet was resuspended in 20 mM HEPES, 0.1 mM EDTA (pH 7.5), and divided in aliquots and stored at −80° C. until use.
[^35S]GTPγS Binding Assay:
The reaction was performed in 96-well plates. […] The incubation was terminated by rapid filtration through Millipore Multiscreen glass fiber FB, and rinsed two-times with ice-cold assay buffer. Filter plates were dried and 30 μl of scintillation liquid was added. Radioactivity was determined using Wallac Microbeta Trilux. Each experiment was performed at least in duplicate.
The average of basal [35S]GTPγS binding was subtracted from all binding data.
The antagonism of the pyrazoline compounds of general formula I to the CB1-receptor was determined according to the method described in Pharmacological methods, part V (table 2).

[4] = radioligand [3H]-CP55940, read-out: IC50

Sequence of recombinant human cannabinoid 1 receptor (CB1) (P21554 whole entry): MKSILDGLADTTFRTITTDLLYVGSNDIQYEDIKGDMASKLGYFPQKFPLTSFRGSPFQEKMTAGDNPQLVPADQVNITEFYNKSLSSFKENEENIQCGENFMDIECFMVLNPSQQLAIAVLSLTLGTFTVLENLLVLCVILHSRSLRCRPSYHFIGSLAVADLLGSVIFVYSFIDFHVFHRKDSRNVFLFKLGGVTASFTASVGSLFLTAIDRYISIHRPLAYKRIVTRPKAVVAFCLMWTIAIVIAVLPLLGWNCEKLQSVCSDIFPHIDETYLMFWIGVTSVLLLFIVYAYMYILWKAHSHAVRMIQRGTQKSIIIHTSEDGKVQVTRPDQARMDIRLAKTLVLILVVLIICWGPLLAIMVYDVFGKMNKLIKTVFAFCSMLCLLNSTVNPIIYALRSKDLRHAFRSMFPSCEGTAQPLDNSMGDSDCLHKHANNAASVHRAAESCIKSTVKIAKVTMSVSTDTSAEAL

Row | Inhibition (CB1-receptor [1]; 10^−7 M) | Inhibition (CB1-receptor [1]; 10^−8 M, in %) | IC50 (CB1-receptor [2]; [4]) | Antagonism [3] | Compound | IC50 (CB1-receptor [2]; radioligand [3H]-CP55940)
1 | 70.6% | 27.6 | 25.1 nM | – | C[C@H]1C(C(=O)NN2CC3CCCC3C2)=NN(c2ccc(Cl)cc2Cl)[C@H]1c1ccc(Cl)cc1 (relative stereo) [Example 13, cis-5-(4-Chloro-phenyl)-1-(2,4-dichloro-phenyl)-4-methyl-4,5-dihydro-1H-pyrazole-3-carboxylic acid (hexahydro-cyclopenta[c]pyrrol-2-yl)-amide] | –
2 | 69.8% | 37.2 | 30 nM | – | C[C@H]1C(C(=O)NC2CCCCCC2)=NN(c2ccc(Cl)cc2Cl)[C@H]1c1ccc(Br)cc1 (relative stereo) [Example 211, cis-5-(4-bromophenyl)-N-cycloheptyl-1-(2,4-dichlorophenyl)-4-methyl-4,5-dihydro-1H-pyrazole-3-carboxamide] | –
3 | 80% | 65 | 7.9 nM | – | C[C@H]1C(C(=O)NN2CCCCCC2)=NN(c2ccc(Cl)cc2Cl)[C@H]1c1ccc(Cl)cc1.Cl (relative stereo) [Example 96, cis-5-(4-Chlorophenyl)-1-(2,4-dichlorophenyl)-4-methyl-4,5-dihydro-1H-pyrazole-3-carboxylic acid azepan-1-ylamide hydrochloride] | –
4 | 58.1% | 42.4 | 82 nM | – | COc1ccc([C@@H]2[C@H](C)C(C(=O)NN3CCCCC3)=NN2c2ccc(Cl)cc2Cl)cc1 (relative stereo) [Example 410, cis-1-(2,4-dichlorophenyl)-5-(4-methoxyphenyl)-4-methyl-N-(piperidin-1-yl)-4,5-dihydro-1H-pyrazole-3-carboxamide] | –
5 | 57.1% | 27.8 | 54.3 nM | – | C[C@@H]1C(C(=O)NN2CCCCC2)=NN(c2ccc(Cl)cc2Cl)[C@@H]1c1ccc(Cl)cc1 (single isomer, unassigned) [Example 419, (−)-cis-5-(4-chlorophenyl)-1-(2,4-dichlorophenyl)-4-methyl-N-(piperidin-1-yl)-4,5-dihydro-1H-pyrazole-3-carboxamide] | –
6 | 62.4% | 14.7 | 19 nM | – | COc1ccc([C@@H]2[C@H](C)C(C(=O)NN3CCc4ccccc43)=NN2c2ccc(Cl)cc2Cl)cc1 (relative stereo) [Example 279, cis-1-(2,4-dichlorophenyl)-N-(indolin-1-yl)-5-(4-methoxyphenyl)-4-methyl-4,5-dihydro-1H-pyrazole-3-carboxamide] | –
7 | 65.3% | 15.3 | 122 nM | – | C[C@H]1C(C(=O)NN2CCCCCC2)=NN(c2ccc(Cl)cc2Cl)[C@H]1c1ccc(F)cc1.Cl (stereo in doubt) [Example 227, cis-N-(azepan-1-yl)-1-(2,4-dichlorophenyl)-5-(4-fluorophenyl)-4-methyl-4,5-dihydro-1H-pyrazole-3-carboxamide hydrochloride] | –
8 | 74.5% | 27.0 | 112 nM | – | C[C@H]1C(C(=S)NN2CCCCC2)=NN(c2ccc(Cl)cc2Cl)[C@H]1c1ccc(Cl)cc1 (relative stereo) [Example 379, cis-5-(4-chlorophenyl)-1-(2,4-dichlorophenyl)-4-methyl-N-(piperidin-1-yl)-4,5-dihydro-1H-pyrazole-3-carbothioamide hydrochloride] | –
9 | 55.5% | 24.7 | 128 nM | – | CC1Cc2ccccc2N1NC(=O)C1=NN(c2ccc(Cl)cc2Cl)[C@@H](c2ccc(Cl)cc2)[C@H]1C (relative stereo) [Example 113, cis-5-(4-chlorophenyl)-1-(2,4-dichlorophenyl)-4-methyl-N-(2-methylindolin-1-yl)-4,5-dihydro-1H-pyrazole-3-carboxamide] | –
10 | 73.7% | 19.5 | 51.4 nM | – | C[C@@H]1C(C(=O)NC2CCCCCCC2)=NN(c2ccc(Cl)cc2Cl)[C@@H]1c1ccc(Cl)cc1 (relative stereo) [Example 119, cis-5-(4-chlorophenyl)-N-cyclooctyl-1-(2,4-dichlorophenyl)-4-methyl-4,5-dihydro-1H-pyrazole-3-carboxamide] | –
11 | 65.7% | 39.3 | 29.7 nM | – | CC1CCCCC1NC(=O)C1=NN(c2ccc(Cl)cc2Cl)[C@H](c2ccc(Cl)cc2)[C@@H]1C (relative stereo) [Example 424, cis-5-(4-chlorophenyl)-1-(2,4-dichlorophenyl)-4-methyl-N-(2-methylcyclohexyl)-4,5-dihydro-1H-pyrazole-3-carboxamide] | –
12 | 90.8% | 39.9 | 31.9 nM | – | C[C@H]1C(C(=O)NC2CCCCCC2)=NN(c2ccc(Cl)cc2Cl)[C@H]1c1ccc(Cl)cc1 (relative stereo) [Example 123, cis-5-(4-chlorophenyl)-N-cycloheptyl-1-(2,4-dichlorophenyl)-4-methyl-4,5-dihydro-1H-pyrazole-3-carboxamide] | –
13 | – | – | – | 81% | C[C@H]1C(C(=O)NN2CCCCC2)=NN(c2ccc(Cl)cc2Cl)[C@H]1c1ccc(Br)s1 (relative stereo) [Example 70, cis-5-(5-Bromo-thiophen-2-yl)-1-(2,4-dichloro-phenyl)-4-methyl-4,5-dihydro-1H-pyrazole-3-carboxylic acid piperidin-1-ylamide] | –

Row | Compound | Inhibition (CB1-receptor [1]; 10^−7 M) | Inhibition (CB1-receptor [1]; 10^−8 M, in %) | IC50 (CB1-receptor [2]; [4]) | Antagonism [3] | IC50 (CB1-receptor [2]; radioligand [3H]-CP55940)
14 | COc1ccc([C@H]2[C@@H](C)C(C(=O)NC3CCCCCC3)=NN2c2ccc(Cl)cc2Cl)cc1 (relative stereo) [Example 275, cis-N-cycloheptyl-1-(2,4-dichlorophenyl)-5-(4-methoxyphenyl)-4-methyl-4,5-dihydro-1H-pyrazole-3-carboxamide] | 69.1% | 26.1 | – | – | 66 nM
15 | COc1ccc([C@H]2[C@@H](C)C(C(=O)NN3CCCCCC3)=NN2c2ccc(Cl)cc2Cl)cc1.Cl (relative stereo) [Example 271, cis-N-(azepan-1-yl)-1-(2,4-dichlorophenyl)-5-(4-methoxyphenyl)-4-methyl-4,5-dihydro-1H-pyrazole-3-carboxamide hydrochloride] | 73.5% | 30.6 | 61 nM | – | –
16 | C[C@H]1C(C(=O)NN2CCCCCC2)=NN(c2ccc(Cl)cc2Cl)[C@H]1c1ccc(Br)cc1.Cl (relative stereo) [Example 207, cis-N-(azepan-1-yl)-5-(4-bromophenyl)-1-(2,4-dichlorophenyl)-4-methyl-4,5-dihydro-1H-pyrazole-3-carboxamide hydrochloride] | 73% | 48.3 | 71 nM | – | –
